Patent US8993765B2, “Tetrahydro-azacarboline MCH-1 antagonists, methods of making, and uses thereof” (Albany Molecular Research, Inc., priority 2010, dated 2015)
Structures can show the parent of a compound that is named as a salt.

Tested on: not given
Assay: not given
Conditions: not given

Row | Compound | melting point
1 | CC(=O)N1CCc2c(c3ccc(-n4ccc(-c5ccc(C(F)(F)F)nc5)cc4=O)nc3n2C)C1 [Example 9, 1-(6-Acetyl-9-methyl-5,7,8,9-tetrahydro-6H-pyrido[3′,4′:4,5]pyrrolo[2,3-b]pyridin-2-yl)-4-(6-(trifluoromethyl)pyridin-3-yl)pyridin-2(1H)-one] | 238 to 242 °C
2 | Cl.Cn1c2c(c3ccc(-n4ccc(-c5ccc(C(F)(F)F)cc5)cc4=O)nc31)CNCC2 [Example 10, 1-(9-Methyl-5,7,8,9-tetrahydro-6H-pyrido[3′,4′:4,5]pyrrolo[2,3-b]pyridin-2-yl)-4-(4-(trifluoromethyl)phenyl)pyridin-2(1H)-one hydrochloride] | 278 to 281 °C (dec.)
3 | CC(=O)N1CCc2c(c3ccc(-n4ccc(OCc5ccccc5)cc4=O)nc3n2C)C1 [Example 11, 1-(6-Acetyl-9-methyl-5,7,8,9-tetrahydro-6H-pyrido[3′,4′:4,5]pyrrolo[2,3-b]pyridin-2-yl)-4-(benzyloxy)pyridin-2(1H)-one] | 206 to 208 °C
4 | CC1Cc2c(c3ccc(N4CCN(CCc5ccc(F)cc5)CC4=O)nc3n2C)CN1.Cl (stereo not shown) [Example 12, 1-(7,9-Dimethyl-5,7,8,9-tetrahydro-6H-pyrido[3′,4′:4,5]pyrrolo[2,3-b]pyridin-2-yl)-4-(4-fluorophenethyl)piperazin-2-one hydrochloride] | 252 to 256 °C
5 | CC1Cc2c(c3ccc(-n4ccc(OCc5ccccc5)cc4=O)nc3n2C)CN1.Cl (stereo not shown) [Example 13, 4-(Benzyloxy)-1-(7,9-dimethyl-5,7,8,9-tetrahydro-6H-pyrido[3′,4′:4,5]pyrrolo[2,3-b]pyridin-2-yl)pyridin-2(1H)-one hydrochloride] | 285 to 289 °C

Continued, values first:

Row | melting point | Compound
6 | 265 °C (dec.) | O=c1cc(-c2ccc(C(F)(F)F)nc2)ccn1-c1ccn2c3c(nc2c1)CCNC3 (as salt: hydrochloride) [Example 24, 1-(1,2,3,4-Tetrahydropyrido[4′,3′:4,5]imidazo[1,2-a]pyridin-7-yl)-4-(6-(trifluoromethyl)pyridin-3-yl)pyridin-2(1H)-one hydrochloride]
7 | 265 °C (dec.) | O=c1cc(OCc2ccc(C(F)(F)F)nc2)ccn1-c1ccn2c3c(nc2c1)CCNC3 (as salt: hydrochloride) [Example 25, 1-(1,2,3,4-Tetrahydropyrido[4′,3′:4,5]imidazo[1,2-a]pyridin-7-yl)-4-((6-(trifluoromethyl)pyridin-3-yl)methoxy)pyridin-2(1H)-one hydrochloride]

Target: human MCH-1 receptor (Homo sapiens (Human), UniProt Q99705)
Assay: Binding Assay for Human Melanin-Concentrating Hormone (MCH-1) Receptor
Conditions: @ 1 uM test compound; membranes of CHO-K1 cells expressing human MCH-1 receptor; read-out: MCH1 percent inhibition of control radioligand specific binding
Method: Binding Assay for Human Melanin-Concentrating Hormone (MCH-1) Receptor
Evaluation of the affinity of compounds for the human MCH-1 receptor was accomplished using 4-(3,4,5-tritritiumbenzyloxy)-1-(1-(2-(pyrrolidin-1-yl)ethyl)-1H-indazol-5-yl)pyridin-2(1H)-one and membranes prepared from stable CHO-K1 cells expressing the human MCH-1 receptor obtained from Euroscreen (Batch 1138). Cell membrane homogenates (8.92 μg protein) were incubated for 60 min at 25° C. with […] of the [^3H]-labeled compound in the absence or presence of the test compound in 50 mM Tris-HCl buffer, pH 7.4. Nonspecific binding was determined in the presence of 50 μM 1-(5-(4-cyanophenyl)bicyclo[3.1.0]hexan-2-yl)-3-(4-fluoro-3-(trifluoromethyl)phenyl)-1-(3-(4-methylpiperazin-1-yl)propyl)urea. Following incubation, the samples were filtered rapidly under vacuum through Skatron 11731 filters, pre-soaked in 0.5% polyethylenimine, and washed with ice-cold 50 mM Tris-HCl buffer, pH 7.4, (wash setting 9,9,0) using a Skatron cell harvester. The filters were counted for radioactivity in a liquid scintillation counter (Tri-Carb 2100TR, Packard) using a scintillation cocktail (Ultima Gold MV, Perkin Elmer).
The results are expressed as a percent inhibition of the control radioligand specific binding. The IC50 value (concentration causing a half-maximal inhibition of control specific binding) and Hill coefficient (nH) were determined by non-linear regression analysis of the competition curve using Hill equation curve fitting. The inhibition constant (Ki) was calculated from the Cheng Prusoff equation: (Ki=IC50/(1+(L/KD)), where L=concentration of radioligand in the assay, and KD=affinity of the radioligand for the receptor.

human MCH-1 receptor, sequence (Q99705 whole entry): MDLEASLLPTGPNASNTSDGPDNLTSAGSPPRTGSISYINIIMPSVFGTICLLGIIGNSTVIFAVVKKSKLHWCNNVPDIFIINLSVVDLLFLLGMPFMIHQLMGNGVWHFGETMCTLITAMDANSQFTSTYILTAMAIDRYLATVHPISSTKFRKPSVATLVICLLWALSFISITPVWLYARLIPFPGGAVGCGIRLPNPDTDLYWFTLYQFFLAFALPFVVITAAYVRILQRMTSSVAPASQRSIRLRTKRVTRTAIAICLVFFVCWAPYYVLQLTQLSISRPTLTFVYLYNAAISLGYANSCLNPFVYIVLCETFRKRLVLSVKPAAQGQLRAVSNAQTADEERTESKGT

Row | Compound | inhibition at 1 µM [%]
8 | O=c1cc(-c2ccc(C(F)(F)F)cc2)ccn1-c1ccc2c(c1)nc1n2CCNC1 [Example 20, 1-(1,2,3,4-Tetrahydropyrazino[1,2-a]benzimidazol-8-yl)-4-(4-(trifluoromethyl)phenyl)pyridin-2(1H)-one hydrochloride] | 61

Same assay, conditions: radioligand displacement, membranes of CHO-K1 cells expressing human MCH-1 receptor; Ki by Cheng Prusoff equation; hydrochloride; read-out: MCH1 Ki

Row | Compound | Ki [nM]
9 | CC1Cc2c(c3ccc(-n4ccc(OCc5ccccc5)cc4=O)nc3n2C)CN1 (single isomer, unassigned; (-)) [Example 17, (−)-4-(Benzyloxy)-1-(7,9-dimethyl-5,7,8,9-tetrahydro-6H-pyrido[3′,4′:4,5]pyrrolo[2,3-b]pyridin-2-yl)pyridin-2(1H)-one hydrochloride] | 9.1
10 | CC1Cc2c(c3ccc(-n4ccc(OCc5ccccc5)cc4=O)nc3n2C)CN1.Cl (stereo not shown) [Example 13, 4-(Benzyloxy)-1-(7,9-dimethyl-5,7,8,9-tetrahydro-6H-pyrido[3′,4′:4,5]pyrrolo[2,3-b]pyridin-2-yl)pyridin-2(1H)-one hydrochloride] | 9.3

Same assay, conditions: radioligand displacement, membranes of CHO-K1 cells expressing human MCH-1 receptor; Ki by Cheng Prusoff equation; read-out: MCH1 Ki

Row | Compound | Ki [nM]
11 | Cn1c2c(c3ccc(-n4ccc(OCc5ccccc5)cc4=O)nc31)CNCC2 [Example 2, 4-(Benzyloxy)-1-(9-methyl-5,7,8,9-tetrahydro-6H-pyrido[3′,4′:4,5]pyrrolo[2,3-b]pyridin-2-yl)pyridin-2(1H)-one dihydrochloride] | 7.1
12 | Cn1c2c(c3ccc(N4CCN(CCc5ccccc5)CC4=O)nc31)CNCC2 [Example 3, 1-(9-Methyl-5,7,8,9-tetrahydro-6H-pyrido[3′,4′:4,5]pyrrolo[2,3-b]pyridin-2-yl)-4-phenethylpiperazin-2-one dihydrochloride] | 47
13 | Cn1c2c(c3ccc(-n4ccc(OCc5ccc(F)cn5)cc4=O)nc31)CNCC2 [Example 4, 4-((5-Fluoropyridin-2-yl)methoxy)-1-(9-methyl-5,7,8,9-tetrahydro-6H-pyrido[3′,4′:4,5]pyrrolo[2,3-b]pyridin-2-yl)pyridin-2(1H)-one hydrochloride] | 15
14 | Cn1c2c(c3ccc(-n4ccc(-c5ccc(C(F)(F)F)nn5)cc4=O)nc31)CNCC2 [Example 5, 1-(9-Methyl-5,7,8,9-tetrahydro-6H-pyrido[3′,4′:4,5]pyrrolo[2,3-b]pyridin-2-yl)-4-(6-(trifluoromethyl)pyridazin-3-yl)pyridin-2(1H)-one hydrochloride] | 105
15 | Cn1c2c(c3ccc(-n4ccc(-c5ccc(C(F)(F)F)nc5)cc4=O)nc31)CNCC2 [Example 6, 1-(9-Methyl-5,7,8,9-tetrahydro-6H-pyrido[3′,4′:4,5]pyrrolo[2,3-b]pyridin-2-yl)-4-(6-(trifluoromethyl)pyridin-3-yl)pyridin-2(1H)-one hydrochloride] | 15
16 | Cn1c2c(c3ccc(-n4ccc(OCc5ccc(C(F)(F)F)nc5)cc4=O)nc31)CNCC2 [Example 7, 1-(9-Methyl-5,7,8,9-tetrahydro-6H-pyrido[3′,4′:4,5]pyrrolo[2,3-b]pyridin-2-yl)-4-((6-(trifluoromethyl)pyridin-3-yl)methoxy)pyridin-2(1H)-one hydrochloride] | 71
17 | Cn1c2c(c3ccc(-n4ccc(-c5ccc(C(F)(F)F)cn5)cc4=O)nc31)CNCC2 [Example 8, 1-(9-Methyl-5,7,8,9-tetrahydro-6H-pyrido[3′,4′:4,5]pyrrolo[2,3-b]pyridin-2-yl)-4-(5-(trifluoromethyl)pyridin-2-yl)pyridin-2(1H)-one hydrochloride] | 33
18 | CC(=O)N1CCc2c(c3ccc(-n4ccc(-c5ccc(C(F)(F)F)nc5)cc4=O)nc3n2C)C1 [Example 9, 1-(6-Acetyl-9-methyl-5,7,8,9-tetrahydro-6H-pyrido[3′,4′:4,5]pyrrolo[2,3-b]pyridin-2-yl)-4-(6-(trifluoromethyl)pyridin-3-yl)pyridin-2(1H)-one] | 78
19 | Cl.Cn1c2c(c3ccc(-n4ccc(-c5ccc(C(F)(F)F)cc5)cc4=O)nc31)CNCC2 [Example 10, 1-(9-Methyl-5,7,8,9-tetrahydro-6H-pyrido[3′,4′:4,5]pyrrolo[2,3-b]pyridin-2-yl)-4-(4-(trifluoromethyl)phenyl)pyridin-2(1H)-one hydrochloride] | 4.7
20 | CC(=O)N1CCc2c(c3ccc(-n4ccc(OCc5ccccc5)cc4=O)nc3n2C)C1 [Example 11, 1-(6-Acetyl-9-methyl-5,7,8,9-tetrahydro-6H-pyrido[3′,4′:4,5]pyrrolo[2,3-b]pyridin-2-yl)-4-(benzyloxy)pyridin-2(1H)-one] | 71
21 | CC1Cc2c(c3ccc(N4CCN(CCc5ccc(F)cc5)CC4=O)nc3n2C)CN1.Cl (stereo not shown) [Example 12, 1-(7,9-Dimethyl-5,7,8,9-tetrahydro-6H-pyrido[3′,4′:4,5]pyrrolo[2,3-b]pyridin-2-yl)-4-(4-fluorophenethyl)piperazin-2-one hydrochloride] | 58
22 | Cn1c2c(c3ccc(-n4ccc(OCc5ccc(Cl)cc5Cl)cc4=O)nc31)CNCC2 [Example 15, 4-((2,4-Dichlorophenyl)methoxy)-1-(9-methyl-5,7,8,9-tetrahydro-6H-pyrido[3′,4′:4,5]pyrrolo[2,3-b]pyridin-2-yl)pyridin-2(1H)-one hydrochloride] | 17
23 | O=c1cc(-c2ccc(C(F)(F)F)cc2)ccn1-c1ccn2c3c(nc2c1)CCNC3 [Example 26, 1-(1,2,3,4-Tetrahydropyrido[4′,3′:4,5]imidazo[1,2-a]pyridin-7-yl)-4-(4-(trifluoromethyl)phenyl)pyridin-2(1H)-one hydrochloride] | 23

Continued, values first:

Row | Ki [nM] | Compound
24 | 81 | CC(=O)N1Cc2c(n(C)c3nc(-n4ccc(OCc5ccccc5)cc4=O)ccc23)CC1C (single isomer, unassigned; enantiomer a) [Example 29, 1-(6-Acetyl-7,9-dimethyl-5,7,8,9-tetrahydro-6H-pyrido[3′,4′:4,5]pyrrolo[2,3-b]pyridin-2-yl)-4-(benzyloxy)pyridin-2(1H)-one (Enantiomer A)]
25 | 62 | O=c1cc(OCc2ccccc2)ccn1-c1ccc2c(c1)nc1n2CCNC1 [Example 18, 4-(Benzyloxy)-1-(1,2,3,4-tetrahydropyrazino[1,2-a]benzimidazol-8-yl)pyridin-2(1H)-one hydrochloride]
26 | 94 | CC(C)N1CCn2c(nc3cc(-n4ccc(OCc5ccccc5)cc4=O)ccc32)C1 [Example 21, 4-(Benzyloxy)-1-(2-(propan-2-yl)-1,2,3,4-tetrahydropyrazino[1,2-a]benzimidazol-8-yl)pyridin-2(1H)-one hydrochloride]
27 | 30 | O=c1cc(OCc2ccc(F)cn2)ccn1-c1ccn2c3c(nc2c1)CCNC3 [Example 23, 4-((5-Fluoropyridin-2-yl)methoxy)-1-(1,2,3,4-tetrahydropyrido[4′,3′:4,5]imidazo[1,2-a]pyridin-7-yl)pyridin-2(1H)-one hydrochloride]
28 | 616 | O=c1cc(-c2ccc(C(F)(F)F)nc2)ccn1-c1ccn2c3c(nc2c1)CCNC3 [Example 24, 1-(1,2,3,4-Tetrahydropyrido[4′,3′:4,5]imidazo[1,2-a]pyridin-7-yl)-4-(6-(trifluoromethyl)pyridin-3-yl)pyridin-2(1H)-one hydrochloride]
29 | 3320 | O=c1cc(OCc2ccc(C(F)(F)F)nc2)ccn1-c1ccn2c3c(nc2c1)CCNC3 [Example 25, 1-(1,2,3,4-Tetrahydropyrido[4′,3′:4,5]imidazo[1,2-a]pyridin-7-yl)-4-((6-(trifluoromethyl)pyridin-3-yl)methoxy)pyridin-2(1H)-one hydrochloride]
30 | 19 | CC(C)N1CCc2nc3cc(-n4ccc(OCc5ccccc5)cc4=O)ccn3c2C1 [Example 27, 4-(Benzyloxy)-1-(2-(propan-2-yl)-1,2,3,4-tetrahydropyrido[4′,3′:4,5]imidazo[1,2-a]pyridin-7-yl)pyridin-2(1H)-one hydrochloride]
31 | 103 | Cn1c2c(c3ccc(-n4ccc(OCc5ccccc5)cc4=O)nc31)C(=O)NCC2 [Example 28, 4-(Benzyloxy)-1-(9-methyl-5-oxo-5,7,8,9-tetrahydro-6H-pyrido[3′,4′:4,5]pyrrolo[2,3-b]pyridin-2-yl)pyridin-2(1H)-one]
